Assay in all cases: In vitro inhibition, CellTiter-Glo (CTG) assay
What all share (format): cell-based

For one experiment, the system named is A498. Conditions: 72 hr exposure. On the procedure: (§1) Cells were grown in RPMI-1640 supplemented with L-Glutamine and 10% FBS of the following cell lines:
(§2) CCRF-CEM; HL-60; KG-1; CFPAC-1; MiaPACA-2; BxPC-3; HepG2; MDA-MB-231; HCT-116; A498; and NCI-H69
(§3) 18, 96 well plates of each cell line were seeded with the optimized number of cells per well in a total volume of 50 μper well. The plates were left overnight. Plate wells were seeded with 100 pt media for media control. The following day, cells were exposed to test compounds as described below. At the same time as drug exposure, a CTG assay was conducted on the 18th plate for the 0 hr count.
(§4) The compounds were added to cells and medium already on the plate to give desired final concentrations. 50 μL media were added to cell control wells, and 50 μL of mix added to vehicle control wells. 10 μM Doxorubicin was added to appropriate wells as control. Cells exposed to test compound were incubated at 37° C. for 72 hr followed by a CTG assay.
(§5) At the end of the 72 hr exposure period, plates were removed for a CellTiter-Glo (CTG) assay from a 37° C., 5% CO2 incubator and placed on the bench at room temperature for 30 mins. 100 μL of CellTiter-Glo reagent was added and mixed for 2 mins, followed by a further 10 min incubation at room temperature. Luminescence was recorded using Synergy 4.0.

The next experiment has as its system BxPC-3. The conditions noted are these: 72 hr exposure. On the procedure: as §1, §2, §3, §4, §5
For a further experiment, the system named is CFPAC-1. Conditions: 72 hr exposure. Here is the method:
as §1, §2, §3, §4, §5

The next experiment relates to HCT-116. Conditions: 72 hr exposure. On the procedure:
as §1, §2, §3, §4, §5

Another experiment has as its system HepG2. The conditions noted are these: 72 hr exposure. Here is the method: as §1, §2, §3, §4, §5
A further experiment has as its system MDA-MB-231. Here is the method:
as §1, §2, §3, §4, §5

In another experiment the test system is MiaPACA-2. Conditions: 72 hr exposure. On the procedure:
as §1, §2, §3, §4, §5

In another experiment the test system is NCI-H69. On the procedure: as §1, §2, §3, §4, §5
[1] abbreviates: Homo sapiens, MDA-MB-231, 72 hr exposure.
The mark [2] stands for this setting: Homo sapiens, NCI-H69, 72 h, 72 hr exposure.

Broadly, the IC50 is the concentration needed to halve the response being measured.

A value given as a limit tells only on which side of the number the result lay.

On to `COC(=O)[C@H](CC(C)C)NP(=O)(N[C@@H](CC(C)C)C(=O)OC)OC[C@H]1O[C@@H](n2ccc(N)nc2=O)C(F)(F)[C@@H]1O` [Compound 109, Methyl (2S)-2-[[[(2R,3R,5R)-5-(4-amino-2-oxo-pyrimidin-1-yl)-4,4-difluoro-3-hydroxy-tetrahydrofuran-2-yl]methoxy-[[(1S)-1-methoxycarbonyl-3-methyl-butyl]amino]phosphoryl]amino]-4-methyl-pentanoate], for which the IC50 in the experiment on A498 (Homo sapiens, A498, 72 h) fell in the range of 10 to 100 µM; in the experiment with BxPC-3 (Homo sapiens, BXPC-3, 72 h), 10 to 100 µM; in the experiment with CFPAC-1 (Homo sapiens, CFPAC-1, 72 h), 1 to 10 µM; in the experiment on HCT-116 (Homo sapiens, HCT-116, 72 h), 10 to 100 µM; with HepG2 (Homo sapiens, HepG2, 72 h), 1 to 10 µM; in the experiment with MDA-MB-231 (setting [1]) it was 10 to 100 µM. For the same compound, the 50% inhibitory concentration (IC50) with MiaPACA-2 (Homo sapiens, MIA PaCa-2, 72 h) lay within 10 to 100 µM; with NCI-H69 (setting [2]) it was 10 to 100 µM.
`CC(C)OP(=O)(OC[C@H]1O[C@@H](n2ccc(N)nc2=O)C(F)(F)[C@@H]1O)OC(C)C` [Compound 119]: the IC50 in the experiment on A498 (Homo sapiens, A498, 72 h) fell in the range of 10 to 100 µM; in the experiment on BxPC-3 (Homo sapiens, BXPC-3, 72 h) it was 10 to 100 µM; with CFPAC-1 (Homo sapiens, CFPAC-1, 72 h), 10 to 100 µM; in the experiment on HCT-116 (Homo sapiens, HCT-116, 72 h), 10 to 100 µM; with HepG2 (Homo sapiens, HepG2, 72 h) it was 10 to 100 µM; in the experiment on MDA-MB-231 (setting [1]), 10 to 100 µM. Also, the IC50 is 10 to 100 µM in the experiment with MiaPACA-2 (Homo sapiens, MIA PaCa-2, 72 h) and 10 to 100 µM in the experiment with NCI-H69 (setting [2]).
Take `CC(C)(C)SSCCOP(=O)(NCc1ccccc1)OC[C@H]1O[C@@H](n2ccc(N)nc2=O)C(F)(F)[C@@H]1O` (single isomer, unassigned) [111 (diastereomer 1)]: the IC50 with A498 (Homo sapiens, A498, 72 h) was 10 to 100 µM; in the experiment with BxPC-3 it was 10 to 100 µM; in the experiment on CFPAC-1, 10 to 100 µM; with HCT-116 it was 10 to 100 µM; with HepG2, 10 to 100 µM; with MDA-MB-231 (setting [1]) it was 10 to 100 µM. Further, the IC50 in the experiment with MiaPACA-2 and in the experiment on NCI-H69 (setting [2]) was 10 to 100 µM in each case.
On to `CC(C)(CO)C(=O)SCCOP(=O)(O)OC[C@H]1O[C@@H](n2ccc(N)nc2=O)C(F)(F)[C@@H]1O` [Compound 118], for which the IC50 in the experiment on A498 (Homo sapiens, A498, 72 h) was < 1 µM; with BxPC-3 (Homo sapiens, BXPC-3, 72 h) it was < 1 µM; in the experiment on CFPAC-1 (Homo sapiens, CFPAC-1, 72 h), < 1 µM; in the experiment on HCT-116 (Homo sapiens, HCT-116, 72 h), < 1 µM; in the experiment with HepG2 (Homo sapiens, HepG2, 72 h) it was < 1 µM; in the experiment with MDA-MB-231 (setting [1]), 1 to 10 µM. Also, the IC50 is < 1 µM in the experiment with MiaPACA-2 (Homo sapiens, MIA PaCa-2, 72 h) and < 1 µM with NCI-H69 (setting [2]).
With `COC(=O)[C@H](CCCCNP1(=O)OC[C@H]2O[C@@H](n3ccc(N)nc3=O)C(F)(F)[C@@H]2O1)NC(=O)OC(C)(C)C` (single isomer, unassigned) [106 (diastereomer 1)], the IC50 is 10 to 100 µM in the experiment on A498 (Homo sapiens, A498, 72 h); 10 to 100 µM with BxPC-3; 1 to 10 µM in the experiment with CFPAC-1 (Homo sapiens, CFPAC-1, 72 h); 10 to 100 µM in the experiment with HCT-116; < 1 µM in the experiment on HepG2 (Homo sapiens, HepG2, 72 h); 10 to 100 µM with MDA-MB-231 (setting [1]). The IC50 was in the range of 1 to 10 µM in the experiment on MiaPACA-2 (Homo sapiens, MIA PaCa-2, 72 h) and 10 to 100 µM in the experiment on NCI-H69 (setting [2]).
Consider `CC(C)OC(=O)[C@@H](C)NP1(=O)OC[C@H]2O[C@@H](n3ccc(N)nc3=O)C(F)(F)[C@@H]2O1` (single isomer, unassigned) [101 (diastereomer 1)], for which the IC50 with A498 was 1 to 10 µM; with BxPC-3, 10 to 100 µM; in the experiment on CFPAC-1, < 1 µM; in the experiment on HCT-116, 1 to 10 µM; in the experiment on HepG2, < 1 µM; in the experiment on MDA-MB-231 (setting [1]), 10 to 100 µM. In addition, the IC50 with MiaPACA-2 was < 1 µM; in the experiment on NCI-H69 (Homo sapiens, NCI-H69, 72 hr exposure) it was 10 to 100 µM.
For the compound `CC(C)(C)C(=O)SCCOP1(=O)OC[C@H]2O[C@@H](n3ccc(N)nc3=O)C(F)(F)[C@@H]2O1` (single isomer, unassigned) [104 (diastereomer 2)], the IC50 is < 1 µM in the experiment with A498; < 1 µM in the experiment on BxPC-3; < 1 µM in the experiment on CFPAC-1; 1 to 10 µM with HCT-116; < 1 µM in the experiment with HepG2; 1 to 10 µM in the experiment with MDA-MB-231 (72 hr exposure). For the same compound, the IC50 with MiaPACA-2 was < 1 µM; in the experiment on NCI-H69 (72 hr exposure), 1 to 10 µM.
